Molecules are shown by their SMILES. Some results are limits rather than exact numbers.

Neuronal acetylcholine receptor; alpha3/beta4, sequence (P30926 whole entry): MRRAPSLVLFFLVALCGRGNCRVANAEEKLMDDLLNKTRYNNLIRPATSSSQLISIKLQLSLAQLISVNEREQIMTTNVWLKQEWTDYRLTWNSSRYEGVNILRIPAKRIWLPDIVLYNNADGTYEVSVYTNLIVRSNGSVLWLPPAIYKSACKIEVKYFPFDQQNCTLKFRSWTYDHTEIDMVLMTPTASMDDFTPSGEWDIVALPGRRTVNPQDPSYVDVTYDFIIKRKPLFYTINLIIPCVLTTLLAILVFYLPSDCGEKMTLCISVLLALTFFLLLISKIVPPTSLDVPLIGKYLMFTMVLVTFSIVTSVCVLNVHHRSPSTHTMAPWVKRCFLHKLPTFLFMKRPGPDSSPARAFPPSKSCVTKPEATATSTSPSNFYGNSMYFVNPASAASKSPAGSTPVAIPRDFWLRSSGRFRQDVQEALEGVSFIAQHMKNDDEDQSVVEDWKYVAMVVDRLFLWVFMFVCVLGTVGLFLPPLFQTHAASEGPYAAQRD
Neuronal acetylcholine receptor; alpha3/beta4, sequence (P32297 whole entry): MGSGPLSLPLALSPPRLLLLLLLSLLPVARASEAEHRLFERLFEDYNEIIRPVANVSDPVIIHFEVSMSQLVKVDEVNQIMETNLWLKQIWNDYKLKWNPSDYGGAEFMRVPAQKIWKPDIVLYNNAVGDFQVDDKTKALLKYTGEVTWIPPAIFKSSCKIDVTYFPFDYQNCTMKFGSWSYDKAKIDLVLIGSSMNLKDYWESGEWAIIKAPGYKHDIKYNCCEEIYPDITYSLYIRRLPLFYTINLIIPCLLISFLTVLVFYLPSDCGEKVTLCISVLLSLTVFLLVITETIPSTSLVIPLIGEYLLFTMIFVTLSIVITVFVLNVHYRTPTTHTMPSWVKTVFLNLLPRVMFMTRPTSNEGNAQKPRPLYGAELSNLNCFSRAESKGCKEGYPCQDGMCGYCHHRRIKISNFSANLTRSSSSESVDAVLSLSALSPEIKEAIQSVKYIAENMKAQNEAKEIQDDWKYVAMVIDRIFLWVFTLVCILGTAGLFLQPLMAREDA

One experiment addresses Neuronal acetylcholine receptor; alpha3/beta4 (Homo sapiens, UniProt P30926+P32297). The experiment is described as follows: Antagonistic activity against Nicotinic acetylcholine receptor alpha3-beta4. The format is functional.
`O=C(N[C@H]1CN2CCC1CC2)c1ccc(Cl)cc1` [listing 1 of 2 here] returned an IC50 not below 60000 nM.

In the next experiment the target is Neuronal acetylcholine receptor subunit alpha-7 (Rattus norvegicus, UniProt Q05941). The experiment in a line: Inhibition of methyllycaconitine (MLA) binding to Nicotinic acetylcholine receptor alpha-7 in rat brain homogenates. The format is tissue-based.
Neuronal acetylcholine receptor subunit alpha-7, sequence (Q05941 whole entry): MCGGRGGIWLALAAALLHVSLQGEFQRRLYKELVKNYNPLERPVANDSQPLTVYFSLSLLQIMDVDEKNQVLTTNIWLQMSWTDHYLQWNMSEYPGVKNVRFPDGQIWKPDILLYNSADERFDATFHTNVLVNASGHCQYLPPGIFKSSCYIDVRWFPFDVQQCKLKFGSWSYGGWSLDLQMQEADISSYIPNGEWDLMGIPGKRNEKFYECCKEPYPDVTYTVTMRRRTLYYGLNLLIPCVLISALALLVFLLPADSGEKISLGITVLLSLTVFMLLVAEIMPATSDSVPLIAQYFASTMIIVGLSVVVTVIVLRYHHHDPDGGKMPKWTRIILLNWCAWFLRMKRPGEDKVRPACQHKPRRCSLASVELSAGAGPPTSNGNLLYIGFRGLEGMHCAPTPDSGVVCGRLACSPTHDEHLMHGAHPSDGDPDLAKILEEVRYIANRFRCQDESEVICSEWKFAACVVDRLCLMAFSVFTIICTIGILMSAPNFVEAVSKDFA
`O=C(N[C@H]1CN2CCC1CC2)c1ccc(Cl)cc1` [listing 1 of 2 here]: the Ki was found to be 27 nM.

In the next experiment the target is T1, Serotonin 3 (5-HT3) receptor (Rattus norvegicus, UniProt P35563+Q9JJ16).
T1 sequence (P35563 whole entry): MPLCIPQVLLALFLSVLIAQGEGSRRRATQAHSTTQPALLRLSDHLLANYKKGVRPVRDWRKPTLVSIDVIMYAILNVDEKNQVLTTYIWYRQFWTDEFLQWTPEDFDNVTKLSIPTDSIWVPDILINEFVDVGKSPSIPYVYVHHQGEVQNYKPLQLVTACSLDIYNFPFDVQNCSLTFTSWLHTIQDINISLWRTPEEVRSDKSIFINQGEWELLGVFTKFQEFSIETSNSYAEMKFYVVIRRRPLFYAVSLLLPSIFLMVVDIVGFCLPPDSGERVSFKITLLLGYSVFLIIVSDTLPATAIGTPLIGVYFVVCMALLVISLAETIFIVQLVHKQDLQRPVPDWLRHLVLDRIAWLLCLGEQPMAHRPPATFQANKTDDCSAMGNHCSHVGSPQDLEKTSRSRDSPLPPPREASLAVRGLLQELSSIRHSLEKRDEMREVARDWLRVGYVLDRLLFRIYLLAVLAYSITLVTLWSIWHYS
T1 sequence (Q9JJ16 whole entry): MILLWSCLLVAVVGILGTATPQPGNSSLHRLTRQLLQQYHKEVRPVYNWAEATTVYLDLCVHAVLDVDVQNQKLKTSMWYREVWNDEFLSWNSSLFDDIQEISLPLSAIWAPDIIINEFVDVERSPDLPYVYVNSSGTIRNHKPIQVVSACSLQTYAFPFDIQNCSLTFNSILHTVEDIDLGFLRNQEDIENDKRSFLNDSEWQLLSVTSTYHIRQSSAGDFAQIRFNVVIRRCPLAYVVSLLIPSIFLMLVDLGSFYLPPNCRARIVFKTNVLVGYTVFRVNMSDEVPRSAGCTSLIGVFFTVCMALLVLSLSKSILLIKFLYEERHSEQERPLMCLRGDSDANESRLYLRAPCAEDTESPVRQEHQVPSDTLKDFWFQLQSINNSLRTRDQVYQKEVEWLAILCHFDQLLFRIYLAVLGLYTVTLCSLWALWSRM
The experiment is described as follows: Inhibition of [3H]GR-65630 binding to 5-hydroxytryptamine 3 receptor from rat brain homogenates.
`O=C(N[C@H]1CN2CCC1CC2)c1ccc(Cl)cc1` [listing 1 of 2 here]: the Ki was determined as 1660 nM.

The next experiment has as its target T1, Serotonin 3 (5-HT3) receptor. The experiment in a line: Functional antagonism of rat 5-hydroxytryptamine 3 receptor in cell-based FLIPR assay.
Compound `O=C(N[C@H]1CN2CCC1CC2)c1ccc(Cl)cc1` [listing 1 of 2 here] came in with an IC50 of 4540 nM.

The target in another experiment is Neuronal acetylcholine receptor; alpha4/beta2 (Rattus norvegicus) (UniProt P09483+P12390). The experiment in a line: Inhibition of [3H]cytisine binding to Nicotinic acetylcholine receptor alpha4-beta2 from rat brain homogenates at 1 uM.
`O=C(N[C@H]1CN2CCC1CC2)c1ccc(Cl)cc1` [listing 2 of 2 here] yielded an inhibition of 14%.

Target in a further experiment: not listed separately
The experiment is described as follows: Agonistic activity against Nicotinic acetylcholine receptor alpha-7 - 5-hydroxytryptamine 3 receptor chimera. The experiment is classed as functional.
For the compound `O=C(N[C@H]1CN2CCC1CC2)c1ccc(OCc2ccccc2)cc1`, the EC50 is more than 100000 nM.

For `O=C(N[C@H]1CN2CCC1CC2)c1ccc(Br)cc1`, the EC50 turned out to be 206 nM.

In the case of `O=C(N[C@H]1CN2CCC1CC2)c1ccc(F)cc1`, the EC50 stood at 506 nM.

`CC(=O)Nc1ccc(C(=O)N[C@H]2CN3CCC2CC3)cc1` yielded an EC50 of more than 100000 nM.

`CC(C)c1ccc(C(=O)N[C@H]2CN3CCC2CC3)cc1` gave an EC50 of more than 100000 nM.

Regarding `COc1ccccc1C(=O)N[C@H]1CN2CCC1CC2`, the EC50 was more than 100000 nM.

As for `COc1cccc(C(=O)N[C@H]2CN3CCC2CC3)c1`, the EC50 was 2200 nM.

With `O=C(N[C@H]1CN2CCC1CC2)c1ccc(Cl)cc1` [listing 1 of 2 here], the midpoint of the response, the EC50, lay at 154 nM.

`CCCc1ccc(C(=O)N[C@H]2CN3CCC2CC3)cc1` showed an EC50 of more than 100000 nM.

On to `O=C(N[C@H]1CN2CCC1CC2)c1ccccc1F`, for which the EC50 stood at 16700 nM. This counts as double-digit micromolar.

`O=C(N[C@H]1CN2CCC1CC2)c1ccc(C(F)(F)F)cc1` returned an EC50 of more than 100000 nM.

Regarding `CS(=O)(=O)c1ccc(C(=O)N[C@H]2CN3CCC2CC3)cc1`, the concentration giving a half-maximal response (EC50) was more than 100000 nM.

As to `O=C(N[C@H]1CN2CCC1CC2)c1ccccc1`, a half-maximal effect (EC50) was put at 1900 nM. In other words, the single-digit micromolar range.

In the case of `Cc1ccc(C(=O)N[C@H]2CN3CCC2CC3)cc1`, the midpoint of the response, the EC50, lay at 324 nM.

In turn, `CCc1ccc(C(=O)N[C@H]2CN3CCC2CC3)cc1` had an EC50 of 3760 nM.

In turn, `CC(=O)c1ccc(C(=O)N[C@H]2CN3CCC2CC3)cc1` had a concentration for a half-maximal effect (EC50) of 30000 nM.

For the compound `COc1ccc(C(=O)N[C@H]2CN3CCC2CC3)cc1`, the EC50 was 360 nM.

The compound `O=C(N[C@H]1CN2CCC1CC2)c1ccc(SCc2ccccc2)cc1` came in with a 50% effective concentration (EC50) of 100000 nM.

On to `O=C(N[C@H]1CN2CCC1CC2)c1ccc(I)cc1`, for which it took 494 nM to reach a half-maximal effect (EC50). This EC50 lies about 200-fold lower than the previous one.

The compound `O=C(N[C@H]1CN2CCC1CC2)c1ccc([N+](=O)[O-])cc1` registered an EC50 of 1000 nM.

`CSc1ccc(C(=O)N[C@H]2CN3CCC2CC3)cc1` yielded an EC50 of 164 nM.

In turn, `CN(C)c1ccc(C(=O)N[C@H]2CN3CCC2CC3)cc1` gave an EC50 of 30000 nM.

`O=C(N[C@H]1CN2CCC1CC2)c1cccc(F)c1` registered an EC50 of 3300 nM.

The compound `O=C(N[C@H]1CN2CCC1CC2)c1cccc(Cl)c1` gave an EC50 of 1500 nM.

`O=C(N[C@H]1CN2CCC1CC2)c1ccc(Cl)cc1` [PNU-282987] registered an EC50 of 128 nM.

Target in a further experiment: not listed separately
The experiment in a line: Antagonistic activity against 5-hydroxytryptamine 3 receptor. The experiment is classed as functional.
In the case of `O=C(N[C@H]1CN2CCC1CC2)c1cc(Cl)cc2c1OCC2`, the Ki amounted to 1 nM.

Another experiment deals with Acetylcholine receptor; alpha1/beta1/delta/gamma (Homo sapiens, UniProt P02708+P07510+P11230+Q07001). The experiment in a line: Antagonistic activity against Nicotinic acetylcholine receptor alpha-1-beta-1-delta-gamma. The experiment is classed as functional.
Acetylcholine receptor; alpha1/beta1/delta/gamma, sequence (P02708 whole entry): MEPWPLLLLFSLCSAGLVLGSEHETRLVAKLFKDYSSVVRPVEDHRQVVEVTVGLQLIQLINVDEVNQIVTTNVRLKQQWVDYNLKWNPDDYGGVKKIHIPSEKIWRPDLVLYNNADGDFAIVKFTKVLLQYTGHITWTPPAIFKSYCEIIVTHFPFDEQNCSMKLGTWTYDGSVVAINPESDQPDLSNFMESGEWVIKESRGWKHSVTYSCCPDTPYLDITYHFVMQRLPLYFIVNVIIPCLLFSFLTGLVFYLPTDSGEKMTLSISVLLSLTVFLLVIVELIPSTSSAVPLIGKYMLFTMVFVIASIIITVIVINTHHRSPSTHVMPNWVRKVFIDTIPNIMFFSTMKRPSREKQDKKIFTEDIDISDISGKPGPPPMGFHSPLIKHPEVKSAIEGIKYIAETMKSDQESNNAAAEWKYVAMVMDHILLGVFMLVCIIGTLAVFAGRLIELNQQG
Acetylcholine receptor; alpha1/beta1/delta/gamma, sequence (P07510 whole entry): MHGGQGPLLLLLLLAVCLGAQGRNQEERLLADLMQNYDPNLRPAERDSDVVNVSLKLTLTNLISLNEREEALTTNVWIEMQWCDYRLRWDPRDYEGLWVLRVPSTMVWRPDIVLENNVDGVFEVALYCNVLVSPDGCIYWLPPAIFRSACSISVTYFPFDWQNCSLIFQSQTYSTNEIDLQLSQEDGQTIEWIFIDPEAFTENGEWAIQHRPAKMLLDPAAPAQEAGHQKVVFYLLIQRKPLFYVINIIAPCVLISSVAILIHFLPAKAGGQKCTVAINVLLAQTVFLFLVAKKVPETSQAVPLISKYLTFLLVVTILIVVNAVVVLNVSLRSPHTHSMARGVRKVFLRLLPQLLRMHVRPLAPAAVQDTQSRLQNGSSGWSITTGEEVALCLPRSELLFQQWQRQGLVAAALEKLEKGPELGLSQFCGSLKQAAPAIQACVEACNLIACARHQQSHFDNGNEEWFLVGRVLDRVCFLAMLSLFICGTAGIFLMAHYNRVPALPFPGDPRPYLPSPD
Acetylcholine receptor; alpha1/beta1/delta/gamma, sequence (P11230 whole entry): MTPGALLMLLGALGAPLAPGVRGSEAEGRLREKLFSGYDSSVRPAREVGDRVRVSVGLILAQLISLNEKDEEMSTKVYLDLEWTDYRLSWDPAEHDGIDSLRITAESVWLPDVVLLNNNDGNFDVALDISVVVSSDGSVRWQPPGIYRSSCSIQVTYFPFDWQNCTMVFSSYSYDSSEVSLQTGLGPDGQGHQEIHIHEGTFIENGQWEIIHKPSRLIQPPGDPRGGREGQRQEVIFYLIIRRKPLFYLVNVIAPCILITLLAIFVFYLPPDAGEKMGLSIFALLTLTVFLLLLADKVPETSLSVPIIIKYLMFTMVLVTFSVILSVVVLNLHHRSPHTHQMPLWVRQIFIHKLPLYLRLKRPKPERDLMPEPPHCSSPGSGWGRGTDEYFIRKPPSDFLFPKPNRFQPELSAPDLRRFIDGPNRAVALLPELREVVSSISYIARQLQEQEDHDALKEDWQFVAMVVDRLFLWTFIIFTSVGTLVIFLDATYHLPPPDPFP
Acetylcholine receptor; alpha1/beta1/delta/gamma, sequence (Q07001 whole entry): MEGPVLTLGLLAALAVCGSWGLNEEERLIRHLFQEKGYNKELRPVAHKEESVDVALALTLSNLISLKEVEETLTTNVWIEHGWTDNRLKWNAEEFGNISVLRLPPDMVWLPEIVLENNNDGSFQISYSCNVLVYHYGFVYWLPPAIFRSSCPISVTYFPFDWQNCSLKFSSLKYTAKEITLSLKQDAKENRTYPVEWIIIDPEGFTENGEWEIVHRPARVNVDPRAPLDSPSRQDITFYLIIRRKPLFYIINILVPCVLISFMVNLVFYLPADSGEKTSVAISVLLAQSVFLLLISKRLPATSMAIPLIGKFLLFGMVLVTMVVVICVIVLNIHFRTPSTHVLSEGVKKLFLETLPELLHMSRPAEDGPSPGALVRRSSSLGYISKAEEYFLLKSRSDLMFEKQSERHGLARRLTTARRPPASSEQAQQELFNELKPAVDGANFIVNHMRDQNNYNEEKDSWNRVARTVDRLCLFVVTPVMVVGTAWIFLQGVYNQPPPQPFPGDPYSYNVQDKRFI
In turn, `O=C(N[C@H]1CN2CCC1CC2)c1ccc(Cl)cc1` [listing 1 of 2 here] yielded an IC50 not below 60000 nM.

As a reminder, the IC50 is the concentration that inhibits the measured activity by half. One may read the Ki as the dissociation constant of the complex between target and ligand, obtained from inhibition or displacement. A low value points to tighter binding. The inhibition is the drop in the measured response relative to a control, in per cent. Usually EC50 stands for the concentration at which the effect is half-maximal. A higher EC50 goes with a need for much substance.

The record behind these values is ChEMBL document CHEMBL1142678, “Discovery and structure-activity relationship of quinuclidine benzamides as agonists of alpha7 nicotinic acetylcholine receptors” (J Med Chem, 2005).
